Laboratory results from patent publication US12262716B2, “Herbicidal mixtures comprising L-glufosinate and their use in soybean cultures” (BASF SE, priority 2017, dated 2025).

Legend:
Format in all cases: in vivo
Echinochloa crus-galli = assay: Greenhouse pot test, post emergence treatment, herbicidal activity against ECHCG; details: scale 0 to 100
Text: (§1) Synergism can be described as an interaction where the combined effect of two or more compounds is greater than the sum of the individual effects of each of the compounds. The presence of a synergistic effect in terms of percent control, between two mixing partners (X and Y) can be calculated using the Colby equation (Colby, S. R., 1967, Calculating Synergistic and Antagonistic Responses in Herbicide Combinations, Weeds, 15, 21-22):
(§2) When the observed combined control effect is greater than the expected (calculated) combined control effect (E), then the combined effect is synergistic.
(§3) However, the weed control afforded by the compounds, mixtures or compositions is not limited to these species. The analysis of synergism or antagonism between the mixtures or compositions was determined using Colby's equation.
The culture containers used were plastic flowerpots containing loamy sand with approximately 3.0% of humus as the substrate. The seeds of the test plants were sown separately for each species and/or resistant biotype. For the pre-emergence treatment, the active ingredients, which had been suspended or emulsified in water, were applied directly after sowing by means of finely distributing nozzles. The containers were irrigated gently to promote germination and growth and subsequently covered with transparent plastic hoods until the plants had rooted. This cover caused uniform germination of the test plants, unless this had been impaired by the active ingredients. For the post-emergence treatment, the test plants were first grown to a height of 3 to 15 cm, depending on the plant habit, and only then treated with the active ingredients which had been suspended or emulsified in water. For this purpose, the test plants were either sown directly and grown in the same containers, or they were first grown separately as seedlings and transplanted into the test containers a few days prior to treatment. […] During this time, the plants were tended, and their response to the individual treatments was evaluated. […]

Cyperus iria = assay: Greenhouse pot test, post emergence treatment, herbicidal activity against CYPIR; details: scale 0 to 100
Abutilon theophrasti = assay: Greenhouse pot test, post emergence treatment, herbicidal activity against ABUTH; details: scale 0 to 100
Text: as §1, §2, §3
(§4) The culture containers used were plastic flowerpots containing loamy sand with approximately 3.0% of humus as the substrate. The seeds of the test plants were sown separately for each species and/or resistant biotype. For the pre-emergence treatment, the active ingredients, which had been suspended or emulsified in water, were applied directly after sowing by means of finely distributing nozzles. The containers were irrigated gently to promote germination and growth and subsequently covered with transparent plastic hoods until the plants had rooted. This cover caused uniform germination of the test plants, unless this had been impaired by the active ingredients. For the post-emergence treatment, the test plants were first grown to a height of 3 to 15 cm, depending on the plant habit, and only then treated with the active ingredients which had been suspended or emulsified in water. For this purpose, the test plants were either sown directly and grown in the same containers, or they were first grown separately as seedlings and transplanted into the test containers a few days prior to treatment. Depending on the species, the plants were kept at 10-25 ° C.or 20-35° C., respectively. The test period extended to 20 days after treatment. During this time, the plants were tended, and their response to the individual treatments was evaluated. The evaluation was carried out by using a scale from 0 to 100. 100 means no emergence of the plants or complete destruction of at least the above-ground parts, and 0 means no damage, or normal course of growth. Data shown are the mean of two replications.
• L-Glufosinate: 5% EC formulation • Saflufenacil: 342 g/l SC formulation • Compound II-89: 5% EC formulation (Compound II-89: ethyl [3-[2-chloro-4-fluoro-5-(1-methyl-6-trifluoromethyl-2,4-dioxo-1,2,3,4-tetrahydropyrimidin-3-yl)phenoxy]-2-pyridyloxy]acetate) • Trifludimoxazin: 500 g/l SC formulation • Pyroxasulfone: 85% WG formulation • Pethoxamid: 5% EC formulation • Sulfentrazone: 480 g/l SC formulation Weeds in the Study: […]

[1] = test system: Erigeron Canadensis, Conyza canadensis; assay: Greenhouse pot test, post emergence treatment, herbicidal activity against ERICA; details: L-Glufosinate 75 g ai/ha, scale 0 to 100
Avena fatua = assay: Greenhouse pot test, post emergence treatment, herbicidal activity against AVEFA; details: scale 0 to 100
Text: as §1, §2, §3
as §4, with “replications. […]” for “replications.”

C#CCN1C(=O)C(F)(F)Oc2cc(F)c(-n3c(=O)n(C)c(=S)n(C)c3=O)cc21 [Trifludimoxazin, trifludimoxazin]
Herbicidal activity against ECHCG, Found (Echinochloa crus-galli; Trifludimoxazin 0.25 g ai/ha): 10

CP(=O)(O)CC[C@H](N)C(=O)O [L-Glufosinate, (2S)-2-amino-4-[hydroxy(methyl)phosphinoyl]butyric acid]
Herbicidal activity against CYPIR, Found (Cyperus iria; L-Glufosinate 200 g ai/ha): 0 | Herbicidal activity against ABUTH, Found (Abutilon theophrasti; L-Glufosinate 75 g ai/ha): 0 | Herbicidal activity against ABUTH, Found (Abutilon theophrasti; L-Glufosinate 150 g ai/ha): 55 | Herbicidal activity against ABUTH, Found (Abutilon theophrasti; L-Glufosinate 200 g ai/ha): 65 | Herbicidal activity against ERICA, Found [1]: 90 | Herbicidal activity against AVEFA, Found (Avena fatua; L-Glufosinate 75 g ai/ha): 0 | Herbicidal activity against AVEFA, Found (Avena fatua; L-Glufosinate 150 g ai/ha): 0 | Herbicidal activity against ECHCG, Found (Echinochloa crus-galli; L-Glufosinate 200 g ai/ha): 0 | Herbicidal activity against ECHCG, Found (Echinochloa crus-galli; L-Glufosinate 400 g ai/ha): 65

CCOCCN(C(=O)CCl)C(=C(C)C)c1ccccc1 [Pethoxamid, pethoxamid]
Herbicidal activity against ABUTH, Found (Abutilon theophrasti; Pethoxamid 50 g ai/ha): 0 | Herbicidal activity against ABUTH, Found (Abutilon theophrasti; Pethoxamid 100 g ai/ha): 0 | Herbicidal activity against AVEFA, Found (Avena fatua; Pethoxamid 50 g ai/ha): 0 | Herbicidal activity against AVEFA, Found (Avena fatua; Pethoxamid 100 g ai/ha): 0

CCOC(=O)COc1ncccc1Oc1cc(-n2c(=O)cc(C(F)(F)F)n(C)c2=O)c(F)cc1Cl [Compound II-89, ethyl [3-[2-chloro-4-fluoro-5-(1-methyl-6-trifluoromethyl-2,4-dioxo-1,2,3,4-tetrahydropyrimidin-3-yl)phenoxy]-2-pyridyloxy]acetate]
Herbicidal activity against CYPIR, Found (Cyperus iria; Compound II-89 0.25 g ai/ha): 0
